Source: ChEMBL document CHEMBL1122062, “Inhibitors of adenosine deaminase. Studies in combining high-affinity enzyme-binding structural units. erythro-1,6-Dihydro-6-(hydroxymethyl)-9-(2-hydroxy-3-nonyl)purine and erythro-9-(2-hydroxy-3-nonyl)purine” (J Med Chem, 1982)

Experiments:
[1] = molecular target: T1, Adenosine deaminase (Bos taurus) (UniProt P56658)
T1 sequence (whole entry): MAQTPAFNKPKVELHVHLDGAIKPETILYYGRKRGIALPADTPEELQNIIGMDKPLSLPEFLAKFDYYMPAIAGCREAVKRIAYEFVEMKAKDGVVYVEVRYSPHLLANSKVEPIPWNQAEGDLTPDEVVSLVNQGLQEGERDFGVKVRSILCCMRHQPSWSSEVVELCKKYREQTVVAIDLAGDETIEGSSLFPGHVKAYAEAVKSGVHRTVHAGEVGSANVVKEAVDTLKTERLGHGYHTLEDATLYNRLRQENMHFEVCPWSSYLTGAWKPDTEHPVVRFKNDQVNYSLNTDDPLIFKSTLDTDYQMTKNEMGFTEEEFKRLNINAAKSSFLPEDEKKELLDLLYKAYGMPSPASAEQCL

[2] = molecular target: T2, Adenosine deaminase (Bos taurus, UniProt P56658); assay: Ability to inhibit calf intestinal adenosine deaminase (ADA).
T2 sequence (P56658 whole entry): T1 sequence (whole entry)

[3] = Upper limit of relative enzyme affinity of compound to the substrate.
[4] = molecular target: T2, Adenosine deaminase; assay: Ability to inhibit calf intestinal adenosine deaminase (ADA); No data

Row | REA [1] | Ki [2] [nM] | Km/Ki [3] | Ki [4] [nM] | SMILES
1 | 2.8e+06 | – | – | – | OC[C@H]1O[C@@H](n2cnc3c2N=CNC[C@H]3O)C[C@@H]1O
2 | – | 680 | 36 | – | CCCCCCC(C(C)O)n1cnc2cncnc21 (stereo unspecified)
3 | – | – | – | 1.3 | CCCCCC[C@@H]([C@@H](C)O)n1cnc2c(N)ncnc21 [EHNA]
4 | – | – | 2.1 | 12000 | CCCCCCC(C(C)O)n1cnc2c1N=CNC2CO (stereo unspecified)
